Measurements taken from publication PMC6515238, “Novel C-2 Symmetric Molecules as α-Glucosidase and α-Amylase Inhibitors: Design, Synthesis, Kinetic Evaluation, Molecular Docking and Pharmacokinetics” (Molecules, 2019).

Tests used:
glucoamylase = system: glucoamylase; set-up: method as in PMID 28482265; settings: cited from earlier work
isomaltase = system: isomaltase; set-up: method as in PMID 28482265; settings: cited from earlier work
maltase = system: maltase; set-up: method as in PMID 28482265; settings: cited from earlier work
[1] = target: T1, α-amylase from porcine pancreas (Sus scrofa, UniProt P00690); test: α-Amylase inhibition assay; format: biochemical; settings: mean ± SEM; starch substrate, DNSA
T1 construct: α-amylase from porcine pancreas (Sigma A3176-500KU, 089K1661); purchased Sigma A3176-500KU (lot 089K1661); host or cells: porcine pancreas
T1 sequence (P00690 16-511): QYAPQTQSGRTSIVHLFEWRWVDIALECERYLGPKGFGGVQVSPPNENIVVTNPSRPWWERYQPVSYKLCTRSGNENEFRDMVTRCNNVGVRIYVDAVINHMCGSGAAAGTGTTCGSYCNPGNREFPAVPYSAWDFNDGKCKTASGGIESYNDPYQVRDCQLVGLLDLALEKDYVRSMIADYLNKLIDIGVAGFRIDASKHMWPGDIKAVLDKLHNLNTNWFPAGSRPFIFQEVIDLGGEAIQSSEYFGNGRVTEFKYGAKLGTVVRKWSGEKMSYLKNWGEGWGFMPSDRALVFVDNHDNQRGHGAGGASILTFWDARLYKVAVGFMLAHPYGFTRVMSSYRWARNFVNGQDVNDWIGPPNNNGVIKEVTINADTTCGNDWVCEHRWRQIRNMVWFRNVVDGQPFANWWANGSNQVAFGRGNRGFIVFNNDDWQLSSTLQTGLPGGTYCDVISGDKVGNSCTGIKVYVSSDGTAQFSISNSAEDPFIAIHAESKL
Protocol: The α-amylase inhibitory activity of sinigrin was determined according to a previously reported method with slight modifications. Briefly, 40 μL of a solution of the test inhibitor and 40 μL of enzyme solution (α-amylase from porcine pancreas (Sigma A3176-500KU, 089K1661) in a buffer of 0.02 M sodium phosphate at pH 6.9 with 0.006 M sodium chloride) were added to a 1.5-mL Eppendorf tube and incubated for 10 min at room temperature. […] Then, 100 μL of DNSA colouring reagent (10 g of sodium potassium tartrate, 1 g of 3,5-dinitrosalicylic acid and 20 mL of 2 N NaOH to a final volume of 100 mL in distilled water) was added, and the mixture was incubated in a boiling water bath for 5 min. After cooling to room temperature, the reaction mixture was diluted to 500 μL using distilled water, and the absorbance was recorded at 540 nm. For non-enzymatic reactions, the assays were performed with a blank containing all of the components except the enzyme. The values of the % inhibition and IC50 were calculated from the results of the assays using the same procedure as that described for the α-glucosidase inhibition assays.

[2] = DPPH free radical scavenging assay; settings: 100 µg/mL
Protocol: Radical scavenging activity was determined by modifying a previously reported 2,2-diphenyl-1-picrylhydrazyl (DPPH) assay. The assay solution consisted of 100 µL of DPPH solution (150 µM), 20 µL of the test compounds solution at increasing concentrations, and enough DMSO to bring the volume of solution in each well to 200 µL. The reaction mixture was then incubated for 30 min at room temperature. Ascorbic acid (vitamin C) was used as a reference inhibitor. The assay measurements were carried out using a micro plate reader (OPTIMax, Tunable) at 520 nm. The reaction rates were compared, and the percentages of inhibition caused by the presence of the test inhibitors were calculated. Each concentration was analysed in three independent experiments run in triplicate.

α-glucosidase = α-glucosidase (Saccharomyces cerevisiae, UniProt P53341); test: Kinetic study of α-glucosidase (Lineweaver-Burk); format: biochemical; settings: Lineweaver-Burk plot
Chain of α-glucosidase (P53341 whole entry): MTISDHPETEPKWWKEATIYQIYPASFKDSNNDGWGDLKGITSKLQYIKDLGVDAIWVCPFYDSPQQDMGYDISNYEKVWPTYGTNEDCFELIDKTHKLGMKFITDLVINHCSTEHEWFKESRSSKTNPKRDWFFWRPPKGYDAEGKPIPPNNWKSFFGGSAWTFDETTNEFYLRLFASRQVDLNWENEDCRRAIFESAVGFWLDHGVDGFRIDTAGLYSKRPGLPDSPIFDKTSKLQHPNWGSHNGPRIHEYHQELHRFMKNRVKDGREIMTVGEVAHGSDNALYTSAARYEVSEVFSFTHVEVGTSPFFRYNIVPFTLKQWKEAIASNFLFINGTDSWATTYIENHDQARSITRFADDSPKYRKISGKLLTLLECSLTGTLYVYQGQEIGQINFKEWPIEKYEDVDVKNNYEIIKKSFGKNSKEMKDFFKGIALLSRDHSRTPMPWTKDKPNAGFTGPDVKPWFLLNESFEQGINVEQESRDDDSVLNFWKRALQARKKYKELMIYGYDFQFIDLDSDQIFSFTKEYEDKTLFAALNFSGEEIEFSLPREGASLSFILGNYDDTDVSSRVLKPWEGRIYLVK
Protocol: To understand the inhibition mechanism of the synthesized compounds on α-glucosidase, an inhibition kinetics study was performed. […] In our evaluation of the kinetics of the enzyme, the Lineweaver-Burk plot of 1/V versus 1/[S] in the presence of different inhibitor concentrations gave a series of straight lines. […] Km increases with increasing concentration, while Vmax remains essentially constant.
A series of experiments was performed to calculate the inhibition kinetics of 5g. The tested concentrations of 5g were 0.00, 0.15 and 0.3. The concentration of substrate, p-nitrophenyl-α-D-glucopyranoside, was between 0.3125 and 10 mM in all the kinetics experiments. The pre-incubation and measurement times were the same as those discussed in the α-glucosidase inhibition assay procedure. The maximal initial velocity was determined from the initial linear portion of absorbance in the first five minutes following the addition of the enzyme at 30 s intervals. The type of inhibition of the enzyme was assessed by preparing Lineweaver-Burk plots of the inverse of the velocities (1/V) versus the inverse of the substrate concentration 1/[S] mM^−1. The EI dissociation constant, Ki, was determined by the secondary plot of 1/V versus the inhibitor concentration.

For `C[C@H]1O[C@H](O[C@H]2[C@H](O)[C@@H](O)[C@@H](O[C@H]3[C@H](O)[C@@H](O)C(O)O[C@@H]3CO)O[C@@H]2CO)[C@H](O)[C@@H](O)[C@@H]1N[C@H]1C=C(CO)[C@@H](O)[C@H](O)[C@H]1O` (some centres unmarked) [Acarbose, acarbose], the inhibition of glucoamylase (glucoamylase) is given as 90%, the inhibition of isomaltase (isomaltase) is given as 10% and the inhibition of maltase (maltase) is given as 60%.

`O=[N+]([O-])c1ccc(/N=N/c2ccc(O)c(/C=N/N=C/c3cc(/N=N/c4ccc([N+](=O)[O-])cc4[N+](=O)[O-])ccc3O)c2)c([N+](=O)[O-])c1` [Compound 5a, (E)-2,2’-((1E,1’E)-Hydrazine-1,2-diylidenebis(methanylylidene))bis(4-((E)-(2,4-dinitrophenyl)diazenyl)phenol)] showed a melting point of 275 °C and an IC50 [1] of 8.54 ± 0.653 µM.

`Oc1ccc(/N=N/c2cccc(Cl)c2Cl)cc1/C=N/N=C/c1cc(/N=N/c2cccc(Cl)c2Cl)ccc1O` [Compound 5b, (E)-2,2’-((1E,1’E)-Hydrazine-1,2-diylidenebis(methanylylidene))bis(4-((E)-(2,3-dichlorophenyl)diazenyl)phenol)] showed a melting point of 222 °C and an IC50 [1] of 28.4 ± 2.17 µM.

In the case of `Oc1ccc(/N=N/c2ccccc2Cl)cc1/C=N/N=C/c1cc(/N=N/c2ccccc2Cl)ccc1O` [Compound 5c, (E)-2,2’-((1E,1’E)-Hydrazine-1,2-diylidenebis(methanylylidene))bis(4-((E)-(2-chlorophenyl)diazenyl)phenol)], the melting point is reported as 195 °C and the IC50 [1] is reported as 9.55 ± 0.73 µM.

For `Oc1ccc(/N=N/c2ccc(Cl)cc2)cc1/C=N/N=C/c1cc(/N=N/c2ccc(Cl)cc2)ccc1O` [Compound 5d, (E)-2,2’-((1E,1’E)-Hydrazine-1,2-diylidenebis(methanylylidene))bis(4-((E)-(4-chlorophenyl)diazenyl)phenol)], the melting point was 205 °C, the IC50 [1] was 9.72 ± 0.863 µM and the “Free radical scavenging activity (%)” value [2] was “did not show significant scavenging potencies”.

In the case of `NS(=O)(=O)c1ccc(/N=N/c2ccc(O)c(/C=N/N=C/c3cc(/N=N/c4ccc(S(N)(=O)=O)cc4)ccc3O)c2)cc1` [Compound 5e, 4,4’-((1E,1’E)-(((1E,1’E)-Hydrazine-1,2-diylidenebis(methanylylidene))bis(4-hydroxy-3,1-phenylene))bis(diazene-2,1-diyl))dibenzenesulfonamide], the melting point is reported as 225 °C and the IC50 [1] is reported as 28.5 ± 2.08 µM.

In the case of `O=S(=O)([O-])c1ccc(/N=N/c2ccc(O)c(/C=N/N=C/c3cc(/N=N/c4ccc(S(=O)(=O)[O-])cc4)ccc3O)c2)cc1.[Na+].[Na+]` [Compound 5f, Sodium 4,4’-((1E,1’E)-(((1E,1’E)-hydrazine-1,2-diylidenebis(methanylylidene))bis(4-hydroxy-3,1-phenylene))bis(diazene-2,1-diyl))dibenzenesulfonate], the melting point is reported as 240 °C, the IC50 [1] is reported as 4.29 ± 0.328 µM and the “Free radical scavenging activity (%)” value [2] is reported as “did not show significant scavenging potencies”.

In the case of `O=[N+]([O-])c1ccc(/N=N/c2ccc(O)c(/C=N/N=C/c3cc(/N=N/c4ccc([N+](=O)[O-])cc4)ccc3O)c2)cc1` [Compound 5g, (E)-2,2’-((1E,1’E)-Hydrazine-1,2-diylidenebis(methanylylidene))bis(4-((E)-(4-nitrophenyl)diazenyl)phenol)], the melting point is reported as 215 °C, the type of inhibition (α-glucosidase) is reported as “competitive” and the IC50 [1] is reported as 0.438 ± 0.042 µM. The “Free radical scavenging activity (%)” value [2] was “did not show significant scavenging potencies”.

Work on `Oc1ccc(/N=N/c2cccc(Cl)c2)cc1/C=N/N=C/c1cc(/N=N/c2cccc(Cl)c2)ccc1O` [Compound 5h, (E)-2,2’-((1E,1’E)-Hydrazine-1,2-diylidenebis(methanylylidene))bis(4-((E)-(3-chlorophenyl)diazenyl)phenol)] yielded a melting point of 210 °C and an IC50 [1] of 0.59 ± 0.012 µM.
